Measurements from patent publication US7384919B2, “Increased solubility flavanolignan preparations” (IVAX Pharmaceuticals s.r.o., priority 2001, dated 2008).

Experiment: Dissolution test of samples filled in hard gelatin capsules (Ph. Eur. Type 2 device)
Format: physicochemical
Settings: Example 2 samples (pure silybin/silydianin), tested as described for Example 1 (capsule, pH 7.5, 100 rpm)
Method: For this purpose 100 mg of each Samples were filled in hard gelatin capsules (number 00). Individual capsules underwent the test on the device as per the Ph. Eur. Type 2 in 2 litres of the dissolution medium pH 7.5 and under 100 revolutions per minute.

Dissolution Values, 30 minutes (after 30 minutes): 4.6%
Dissolution Values, 60 minutes (after 60 minutes): 4.5%
SMILES: COc1cc(C2Oc3cc([C@H]4Oc5cc(O)cc(O)c5C(=O)[C@@H]4O)ccc3OC2CO)ccc1O (some centres unmarked) [Silybin, silybin]
